Measurements published in ChEMBL document CHEMBL1201862, “PubChem BioAssay data set” (2004).
Activity calls are given as the source filed them.

How the values were obtained:
Exodeoxyribonuclease V = molecular target: T1, Exodeoxyribonuclease V (Escherichia coli (strain K12), UniProt P04993+P07648+P08394); assay: RecBCD inhibition via phage-restricted bacterial growth – absorbance, V66 E. coli, mutant T4 phage, counter-screen for AddAB inhibitor project, dose response (AID 492957); format: functional, cell-based, Escherichia coli str. K-12 substr. MG1655
T1 sequence (P04993 whole entry): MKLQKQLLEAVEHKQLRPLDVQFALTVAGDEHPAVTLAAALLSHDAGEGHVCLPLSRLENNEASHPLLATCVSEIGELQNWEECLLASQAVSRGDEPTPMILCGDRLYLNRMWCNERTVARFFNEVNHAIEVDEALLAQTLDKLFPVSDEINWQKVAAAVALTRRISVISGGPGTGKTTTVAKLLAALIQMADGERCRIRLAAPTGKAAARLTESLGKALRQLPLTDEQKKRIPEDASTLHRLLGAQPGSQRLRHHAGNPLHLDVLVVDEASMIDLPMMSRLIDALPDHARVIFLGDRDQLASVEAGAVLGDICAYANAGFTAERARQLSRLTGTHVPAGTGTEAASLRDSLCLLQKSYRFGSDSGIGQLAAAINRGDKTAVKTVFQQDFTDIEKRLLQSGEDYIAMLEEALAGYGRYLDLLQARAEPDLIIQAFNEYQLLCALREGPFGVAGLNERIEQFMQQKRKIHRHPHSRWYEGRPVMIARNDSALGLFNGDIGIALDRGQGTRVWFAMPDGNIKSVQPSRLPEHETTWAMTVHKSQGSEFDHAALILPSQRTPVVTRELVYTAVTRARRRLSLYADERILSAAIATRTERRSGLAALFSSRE
T1 sequence (P07648 whole entry): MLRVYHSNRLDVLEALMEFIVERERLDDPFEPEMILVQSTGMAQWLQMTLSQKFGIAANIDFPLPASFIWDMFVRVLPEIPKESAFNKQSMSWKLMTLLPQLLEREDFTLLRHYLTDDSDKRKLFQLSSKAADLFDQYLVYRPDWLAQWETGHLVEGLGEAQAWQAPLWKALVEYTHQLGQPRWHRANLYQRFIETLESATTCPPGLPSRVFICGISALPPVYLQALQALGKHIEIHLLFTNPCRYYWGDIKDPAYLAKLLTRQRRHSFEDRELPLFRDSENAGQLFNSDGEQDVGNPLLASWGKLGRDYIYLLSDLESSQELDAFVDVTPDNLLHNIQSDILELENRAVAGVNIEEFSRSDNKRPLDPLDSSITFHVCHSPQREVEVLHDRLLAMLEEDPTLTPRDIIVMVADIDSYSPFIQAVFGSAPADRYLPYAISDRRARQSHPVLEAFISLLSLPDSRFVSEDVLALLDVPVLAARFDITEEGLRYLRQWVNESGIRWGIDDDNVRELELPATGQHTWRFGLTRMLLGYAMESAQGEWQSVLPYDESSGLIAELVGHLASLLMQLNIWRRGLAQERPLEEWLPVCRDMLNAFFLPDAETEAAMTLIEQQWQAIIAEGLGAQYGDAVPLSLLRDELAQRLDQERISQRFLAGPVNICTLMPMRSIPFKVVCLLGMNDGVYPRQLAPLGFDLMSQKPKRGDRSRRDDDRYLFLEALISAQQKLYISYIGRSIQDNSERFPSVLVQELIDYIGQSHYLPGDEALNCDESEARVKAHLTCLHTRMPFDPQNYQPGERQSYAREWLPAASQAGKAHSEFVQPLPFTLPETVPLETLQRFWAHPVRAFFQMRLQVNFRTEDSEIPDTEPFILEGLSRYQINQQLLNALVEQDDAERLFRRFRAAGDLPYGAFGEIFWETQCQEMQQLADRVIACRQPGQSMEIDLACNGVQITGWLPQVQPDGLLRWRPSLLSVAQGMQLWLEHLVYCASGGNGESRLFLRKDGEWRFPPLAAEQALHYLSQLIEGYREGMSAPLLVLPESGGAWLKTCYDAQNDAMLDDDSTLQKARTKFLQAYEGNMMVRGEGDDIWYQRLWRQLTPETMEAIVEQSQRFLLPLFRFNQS
T1 sequence (P08394 whole entry): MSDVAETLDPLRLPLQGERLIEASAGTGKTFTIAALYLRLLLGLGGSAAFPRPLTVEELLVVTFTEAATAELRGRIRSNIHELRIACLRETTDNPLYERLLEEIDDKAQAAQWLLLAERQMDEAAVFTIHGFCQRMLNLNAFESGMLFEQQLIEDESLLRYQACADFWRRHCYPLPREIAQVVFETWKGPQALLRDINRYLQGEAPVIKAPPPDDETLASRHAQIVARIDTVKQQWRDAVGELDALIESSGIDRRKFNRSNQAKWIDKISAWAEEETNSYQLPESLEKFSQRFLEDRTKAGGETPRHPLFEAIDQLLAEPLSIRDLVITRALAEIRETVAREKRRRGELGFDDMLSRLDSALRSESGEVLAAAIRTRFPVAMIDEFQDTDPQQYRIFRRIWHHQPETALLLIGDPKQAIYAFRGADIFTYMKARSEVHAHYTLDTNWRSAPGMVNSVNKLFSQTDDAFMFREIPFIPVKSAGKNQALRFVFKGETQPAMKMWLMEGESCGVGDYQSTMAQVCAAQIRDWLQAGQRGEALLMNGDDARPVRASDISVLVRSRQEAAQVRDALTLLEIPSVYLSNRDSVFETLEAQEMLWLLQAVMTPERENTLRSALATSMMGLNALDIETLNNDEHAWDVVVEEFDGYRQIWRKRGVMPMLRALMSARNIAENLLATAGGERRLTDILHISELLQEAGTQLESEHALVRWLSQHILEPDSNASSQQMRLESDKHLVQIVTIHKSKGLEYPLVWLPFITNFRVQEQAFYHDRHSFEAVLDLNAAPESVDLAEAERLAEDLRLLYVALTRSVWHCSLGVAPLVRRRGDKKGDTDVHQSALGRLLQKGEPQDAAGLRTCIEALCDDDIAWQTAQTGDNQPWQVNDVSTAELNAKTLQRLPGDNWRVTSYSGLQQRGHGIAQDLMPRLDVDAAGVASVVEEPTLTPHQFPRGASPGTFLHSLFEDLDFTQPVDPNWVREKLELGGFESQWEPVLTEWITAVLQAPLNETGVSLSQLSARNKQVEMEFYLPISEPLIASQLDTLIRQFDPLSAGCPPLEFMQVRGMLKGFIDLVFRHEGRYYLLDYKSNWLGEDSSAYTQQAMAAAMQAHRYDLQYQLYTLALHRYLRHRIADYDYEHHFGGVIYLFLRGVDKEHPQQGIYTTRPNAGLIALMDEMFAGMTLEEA

Streptococcus = assay: GAS UMAA2166 growth inhibition – luminescence, BacTiterGlo, counter-screen for streptokinase expression inhibitor project, dose response (AID 1915); format: functional, organism-based;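 note: potency for reduction of bacterial viability or growth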
INS1 = assay: INS-1E survival protection against cytokine death – cell-based, luminescence, retest, dose response (AID 449756); format: functional; conditions: Rattus norvegicus;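 note: cell death triggered by IL-1 beta plus TNF-alpha plus IFN-gamma mixture; protective hits raise ATP signal compared with cytokine alone wells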
[1] = tested on: Streptococcus sp. 'group A'; assay: Streptococcus pyogenes SK(-)GAS viability under kanamycin – luminescence, BacTiterGlo, confirmation, counter-screen for streptokinase expression inhibitor project, dose response (AID 1900); format: functional, organism-based

Structure (SMILES) | IC50 (Exodeoxyribonuclease V) | EC50 (Streptococcus) | AC50 (INS1) | EC50 [1]
CCCCC(=O)NC(c1ccco1)c1cc(Cl)c2cccnc2c1O (centres undefined) | > 119 µM (inactive) | 8.22 µM (active) | 2.74 µM (active) | 4 µM (active)
CCCCC(=O)NC(c1ccc(Cl)cc1)c1ccc2cccnc2c1O (centres undefined) | > 119 µM (inactive) | – | 0.476 µM (active) | –
O=C(N/N=C/c1ccccc1O)/C(O)=C\C1=NC2(CCCC2)Cc2ccccc21 | > 119 µM (inactive) | 11.2 µM (active) | – | 3.18 µM (active)
